Measured values: patent US11842798B2, “Natural product and genetic data analysis and discovery system, method and computational platform therefor” (priority 2015, dated 2023)
Entries after “also recorded” stand apart in the source; their conditions may differ. Like-named read-outs stand apart in the source and are kept apart here. Numbered stars: 1 amine (or outer) side, 2 acyl side, 3 side chain; on linkers, the order of the positions; unused ones are H or OH. Bridge positions count the residues as written; N and C are the ends. Square brackets hold non-standard residues; d marks the D form. Peptide text beside a SMILES is read from it. X1 = O=C(/C(=C\c1c[nH]c2ccccc12)N[*:1])[*:2]; X2 = CC(c1c[nH]c2ccccc12)C(N[*:1])C(=O)[*:2]; βAsp = O=C(O)[CH](CC(=O)[*:2])N[*:1]

What was measured:
[1] = system: Telomycin-resistant bacteria; assay: MIC by broth microdilution, telomycin-resistant strains; type: cell-based, S. aureus and B. subtilis; settings: for activity against resistant strains: compared with telomycin A against sensitive strains
Protocol: (§1) FIG. 46 summarizes MICs of telomycin antibiotics (1-10). Sensitive and resistant strains were exposed to telomycins and MICs were measured by microdilution in CAMHB. MICs were determined after 16 h growth, and are shown in μg ml−1.
(§2) Minimum inhibitory concentrations (MICs) for telomycins were determined using broth microdilution in cation-adjusted Mueller Hinton broth (CAMHB). Bacillus subtilis strains were cultured at 28° C., and S. aureus strains were cultured at 37° C. […] For assessing the impact of treating strains with sodium chloride concentrations prior to telomycin, S. aureus was grown overnight in CAMHB containing 0, 0.5, 1, or 1.5 M NaCl and then MICs were recorded as described above.
To identify mutations that conferred resistance to telomycin, we isolated colonies of S. aureus Newman that appeared inside the zone of inhibition observed during telomycin disk diffusion assays. […] Genomic DNA was extracted from highly resistant isolates and their sensitive parental strain, and sequenced with an Illumina MiSeq platform. Sequences were compared using BreSeq, which exclusively identified mutations in the predominant, house-keeping cardiolipin synthase (cls2). Bacillus subtilis telomycin-resistant mutants were identified in a similar manner, and mutations in cardiolipin synthase were confirmed by sequencing PCR products of the two cardiolipin synthase genes: clsA and clsB. […] PCR primers used for the amplification of B. subtilis cardiolipin synthase genes are as follows— • clsAF: 5′-[…]-3′ (SEQ ID NO: 1); • clsAR: 5′-[…]-3′ (SEQ ID NO: 2); • clsBF: 5′-[…]-3′ (SEQ ID NO: 3); • clsBR: 5′-[…]-3′ (SEQ ID NO: 4). Structure Elucidation

[2] = system: Gram positive organisms; settings: cited from earlier work
[3] = system: Sensitive and resistant strains; assay: MICs of telomycin antibiotics (FIG. 46); type: cell-based
Protocol: as §1, §2

[4] = system: S. aureus; assay: MIC by broth microdilution in CAMHB; type: cell-based
Protocol: as §2
(§3) (a) Structure of telomycin. […] Wild type S. aureus (OD 0.2) was exposed to 8 (1×MIC) or 256 μg ml^−1 (32×MIC) telomycin. Colony-forming units (CFUs) were taken before treatment (black) and after 90 min (white). Results are shown as ±s.d.; n=4; Two-tailed students t-test. P=0.0023. Data are representative of three independent experiments.

[5] = system: Chinese Hamster ovary (CHO) cells; settings: previous studies; cited from earlier work
[6] = system: HEK293 cells; assay: Cytotoxicity assay (Alamar Blue); type: cell-based, human; settings: HEK293, 48 h
Protocol: HEK293 cells were obtained from the American Type Culture Collection (ATCC; ATCC CRL-1573) and maintained in Minimal Essential Media (MEM) Alpha modifications supplemented with 10% fetal bovine serum. […] Cells were cultured in 96-well plates containing 200 μL of media and 5000 cells per well. After 3 h of incubation, cells were treated with a serial dilution of telomycin A. Experiments were performed in duplicate with DMSO as a negative control and mitomycin C as a positive control. After 48 h incubation, 10% (22 μL) Alamar Blue (Life Technologies) was added and incubated with cells for 4 h at 37° C. Fluorescence was measured at an excitation wavelength of 530 nm and an emission wavelength of 590 nm and compared to a no-drug control.

[7] = system: Telomycin-resistant bacteria; assay: CFU lysis assay on spontaneously-resistant strains; type: cell-based, S. aureus and B. subtilis; settings: 32×MIC, 90 min
Protocol: (§4) Cultures of S. aureus and B. subtilis were grown overnight in CAMHB. Starter cultures were used to inoculate fresh media and were grown to OD=0.2, after which they were transferred to 96-well plates. Cultures were serially diluted and plated on CAMHB agar to determine initial colony-forming units. Telomycin dissolved in DMSO was added to each well (1:100) and incubated for 90 min, followed by serial dilution and plating to determine colony-forming units. Results are shown as ±s.d.; n=4; Two-tailed students t-test.
(§5) (a) Mutating cardiolipin synthase provides spontaneous telomycin resistance. Wild type and spontaneously-resistant S. aureus (left) and B. subtilis (right) were exposed to 32×MIC concentrations of telomycin for 90 min. CFUs were taken before treatment (black) and after 90 min (white). Results are shown as ±s.d.; n=4; Two-tailed students t-test. P=0.0018. Data are representative of three independent experiments. […] Telomycin (final concentration 5 mM; 6.3 mg ml^−1) was mixed with CL, PG, PE, or PC at concentrations ranging from 0.125 to 5 mg ml^−1. Mixtures were incubated for 5 min before turbidity was measured using absorbance at 600 nm. […] Telomycin (0.1 mM) was exposed to lipids at concentrations ranging from 1 to 0.05 mM, then used to determine MICs against wild type B. subtilis. […] (d) Cardiolipin abolishes telomycin's antibacterial activity. […]

[8] = system: B. subtilis; assay: Bioactivity of telomycin-lipid mixtures in liquid media (MIC); type: cell-based
Protocol: To assess the impact of various lipids on telomycin's antibacterial activity in liquid media, telomycin was dissolved in methanol at 12.8 mg/mL (approx. 10 mM) and 1 μL was added to a 96-well plate. Lipids were dissolved in methanol and 10 μL of 10, 5, 2, 1, or 0.5 mM lipid was added to each telomycin-containing well. CAMHB inoculated with B. subtilis was added to each well and serially diluted to determine the minimum inhibitory concentration of each telomycin-lipid mixture. Plates were incubated shaking at 28° C. for 16 h.
as §5

[9] = system: B. subtilis; assay: Bioactivity of telomycin-lipid mixtures on solid agar (diffusion disks); type: cell-based; settings: excess cardiolipin (2× molar equivalent)
Protocol: To assess the impact of various lipids on telomycin's antibacterial activity on solid agar, 10 μL of 10 mM telomycin was mixed with 10 μL of 20 mM cardiolipin (Sigma Aldrich; C0563; ≥98% pure), phosphatidylglycerol (Sigma Aldrich; 63371; ≥98% pure), phosphatidylcholine (Sigma Aldrich; P3556; ≥99% pure), or phosphatidylethanolamine (Sigma Aldrich; P7943; ≥97% pure). All compounds were dissolved in methanol. Mixtures were incubated for 10 min, then added to diffusion disks, allowed to dry, then placed on a CAMHB agar plate with B. subtilis as an indicator organism. The plate was incubated overnight at 28° C.
(§6) (a) Mutating cardiolipin synthase provides spontaneous telomycin resistance. Wild type and spontaneously-resistant S. aureus (left) and B. subtilis (right) were exposed to 32×MIC concentrations of telomycin for 90 min. CFUs were taken before treatment (black) and after 90 min (white). Results are shown as ±s.d.; n=4; Two-tailed students t-test. P=0.0018. Data are representative of three independent experiments. […] Telomycin (final concentration 5 mM; 6.3 mg ml^−1) was mixed with CL, PG, PE, or PC at concentrations ranging from 0.125 to 5 mg ml^−1. Mixtures were incubated for 5 min before turbidity was measured using absorbance at 600 nm. […] Telomycin (0.1 mM) was exposed to lipids at concentrations ranging from 1 to 0.05 mM, then used to determine MICs against wild type B. subtilis. […]

[10] = system: sheep red blood cell; assay: Red blood cell (RBC) hemolysis assay; type: cell-based; settings: 0.25% sheep RBC, 256 to 2 μg/mL, 1 h, 37° C.
Protocol: Hemolytic activity of telomycin was measured against a 0.25% sheep red blood cell (RBC, Fisher Scientific) suspension in phosphate-buffered saline. Telomycin was serially diluted from 256 to 2 μg/mL and incubated with the RBC suspension for 1 h at 37° C. in a polypropylene 96-well plate with conical wells. After 1 h, RBCs were pelleted (1000×g for 5 min) and the supernatant was transferred to a flat-bottom polystyrene 96-well plate, measuring absorbance at 540 nm. 1% Triton X-100 was used as a positive control, while DMSO alone and RBCs alone were used as negative controls.
A solution of 0.25% sheep red blood cell suspension in phosphate buffered saline was incubated for 1 h at 37° C. with either a serial dilution of telomycin, 1% Triton X100 (positive lysis control), DMSO alone (1%; negative lysis control), or without added content (negative lysis control). After 1 h RBCs were pelleted and lysis was assessed by measuring absorbance of the supernatant at 540 nm.

[11] = Turbidity of telomycin-lipid mixtures; type: binding; settings: telomycin mixed with cardiolipin, absorbance at 600 nm, other lipids as contrast
Protocol: To measure the turbidity of telomycin-lipid mixtures, telomycin was dissolved in methanol at a concentration of 12.8 mg/mL, and cardiolipin (Sigma Aldrich; C0563; 98% pure), phosphatidylglycerol (Sigma Aldrich; 63371; ≥98% pure), phosphatidylcholine (Sigma Aldrich; P3556; ≥99% pure), and phosphatidylethanolamine (Sigma Aldrich; P7943; 97% pure) were dissolved in methanol at a concentration of 10 mg/mL. 20 μL of telomycin was mixed with 20, 10, 5, 1, or 0.5 μL of each lipid (final reaction volume 40 μL) in a flat-bottom polystyrene 96-well plate. Optical density (OD=600 nm) was measured after 10 min.
as §6

[12] = system: B. subtilis; assay: Colony forming unit (CFU) lysis assay; type: cell-based; settings: concentrations above the MIC
Protocol: as §4, §5

[13] = in vivo, cited from earlier work
[14] = system: S. aureus; assay: Colony forming unit (CFU) lysis assay; type: cell-based
Protocol: as §4, §3
(a) Mutating cardiolipin synthase provides spontaneous telomycin resistance. Wild type and spontaneously-resistant S. aureus (left) and B. subtilis (right) were exposed to 32×MIC concentrations of telomycin for 90 min. CFUs were taken before treatment (black) and after 90 min (white). Results are shown as ±s.d.; n=4; Two-tailed students t-test. P=0.0018. Data are representative of three independent experiments. […] Mixtures were incubated for 5 min before turbidity was measured using absorbance at 600 nm. […]

CC(C)CC1NC(=O)C(C(C)c2c[nH]c3ccccc23)NC(=O)/C(=C\c2c[nH]c3ccccc23)NC(=O)C2CCCN2C(=O)CNC(=O)C(C)NC(=O)C(C(C)O)NC(=O)C(NC(=O)C(CO)NC(=O)CC(N)C(=O)O)C(C)OC(=O)C2CCCN2C1=O (stereo not drawn) [telomycin F] (βAsp-STTAGP[X1][X2]LP; ester 2-C; configuration not given here)
activity against resistant strains [1]: comparable with the activity of telomycin A against sensitive strains

LL-AO341β
activity relative to telomycin [2]: improved activity
cross-resistance with other antibacterial agents ([2]; previous observations): does not demonstrate cross-resistance

N-carboxyfluorescein telomycin [fluorescein-labelled telomycin conjugate]
antimicrobial activity relative to telomycin [3]: slight decrease

di-5-methyltryptophan telomycin
activity against resistant strains [1]: comparable with the activity of telomycin A against sensitive strains

telomycin A
telomycin activity after growth in high salinity ([4]; S. aureus grown in CAMHB with 0, 0.5, 1, or 1.5 M NaCl): improved
MIC ([4]; Wild type S. aureus): 8 µg/mL
toxicity: not observed at concentrations up to [5]: > 40 µg/mL
cytotoxicity: not observed at concentrations up to [6]: > 128 µg/mL
increase in MIC ([1]; telomycin-resistant bacteria generated with limited passaging, versus sensitive parent): 16 fold
lysis of telomycin-resistant bacteria [7]: refractory to lysis
effect of phosphatidylglycerol on antibacterial activity of telomycin ([8]; phosphatidylglycerol in 10× molar excess): some protective effect
effect of cardiolipin on antibacterial activity of telomycin (MIC) ([8]; telomycin 0.1 mM, lipids 1 to 0.05 mM): reduces telomycin's antibacterial activity in a dose-dependent manner
effect of cardiolipin on antibacterial activity of telomycin [9]: completely abolish; also recorded: abolishes
hemolysis [10]: not hemolytic; also recorded: does not cause hemolysis
hemolysis ([10]; listed as Telomycin): not hemolytic; also recorded: does not Cause Hemolysis
turbidity / precipitation with cardiolipin [11]: rapidly formed an opaque precipitant in a dose-dependent manner
turbidity / precipitation with cardiolipin ([11]; listed as Telomycin): uniquely and rapidly acquire turbidity
lysis of bacteria [12]: rapid lysis
efficacy in animal studies [13]: demonstrated efficacy; also recorded: demonstrated value in vivo
toxicity in animals / mammals [13]: without apparent toxicity
toxicity in animals / mammals ([13]; listed as Telomycin): not known to possess significant toxicity
lysis of bacteria ([14]; concentrations above the MIC): rapid lysis
lysis (CFUs before and after treatment) ([14]; wild type S. aureus OD 0.2, 256 μg ml^−1 (32×MIC), 90 min): lyses S. aureus at high concentrations
